From publication PMC6274214, “Antimicrobial Activity and Urease Inhibition of Schiff Bases Derived from Isoniazid and Fluorinated Benzaldehydes and of Their Copper(II) Complexes” (Molecules, 2016) come the findings set out here.

T1 sequence (P07374 whole entry): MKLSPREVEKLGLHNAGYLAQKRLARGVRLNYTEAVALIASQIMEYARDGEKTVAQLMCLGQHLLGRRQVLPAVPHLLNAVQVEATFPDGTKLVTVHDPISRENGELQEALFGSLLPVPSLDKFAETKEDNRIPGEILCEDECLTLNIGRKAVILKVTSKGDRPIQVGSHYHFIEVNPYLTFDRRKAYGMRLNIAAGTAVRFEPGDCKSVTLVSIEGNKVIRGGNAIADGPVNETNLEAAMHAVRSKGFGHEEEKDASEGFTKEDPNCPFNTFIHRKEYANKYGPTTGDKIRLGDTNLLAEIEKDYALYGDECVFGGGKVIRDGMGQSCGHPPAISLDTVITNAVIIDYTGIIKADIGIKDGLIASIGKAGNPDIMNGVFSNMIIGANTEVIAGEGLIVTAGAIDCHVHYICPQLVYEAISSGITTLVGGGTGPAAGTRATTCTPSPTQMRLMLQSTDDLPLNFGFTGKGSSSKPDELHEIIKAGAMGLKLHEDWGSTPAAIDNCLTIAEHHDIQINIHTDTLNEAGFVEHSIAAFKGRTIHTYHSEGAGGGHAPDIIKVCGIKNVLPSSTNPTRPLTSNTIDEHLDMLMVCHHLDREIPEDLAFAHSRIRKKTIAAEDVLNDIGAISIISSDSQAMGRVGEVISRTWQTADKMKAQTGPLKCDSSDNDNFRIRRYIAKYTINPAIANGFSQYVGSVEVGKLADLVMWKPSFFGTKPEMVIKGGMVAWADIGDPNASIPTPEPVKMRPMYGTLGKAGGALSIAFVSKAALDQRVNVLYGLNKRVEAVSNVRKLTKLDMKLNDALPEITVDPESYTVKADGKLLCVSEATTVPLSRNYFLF

The assay concerns the target T1, jack bean urease (Canavalia ensiformis, UniProt P07374).
T1 construct: native jack bean urease
In words: phenol red pH-rise urease assay, […] nm, time from pH […] to […]. The assay is classed as biochemical.
With `O=C(NN=Cc1ccc(C(F)(F)F)cc1)c1ccncc1` [L1], the half-maximal inhibitory concentration (IC50) (as a rule, the concentration at which inhibition is half-maximal) is over 500 µM. The same measure for `O=C(NN=Cc1ccccc1)c1ccncc1` [L6, N-(benzylidene)pyridine-4-carbohydrazide]: over 500 µM; for `O=C(NN=Cc1cccc(F)c1O)c1ccncc1` [L5, N-[(3-fluoro-2-hydroxyphenyl)methylidene]pyridine-4-carbohydrazide]: over 500 µM. Then `CC(=O)NO` [Acetohydroxamic acid, reference compound], with 185 ± 6.2 µM; and `O=C(NN=Cc1ccc(F)cc1)c1ccncc1` [L3, N-[(4-fluorophenyl)methylidene]pyridine-4-carbohydrazide monohydrate], with over 500 µM.

`O=C(NN=Cc1ccccc1C(F)(F)F)c1ccncc1` [L2, N-[[(2-trifluoromethyl)phenyl]methylidene]pyridine-4-carbohydrazide] showed an IC50 of over 500 µM. The same measure for `O=C(NN=Cc1cc(F)ccc1O)c1ccncc1` [L4, N-[(5-fluoro-2-hydroxyphenyl)methylidene]pyridine-4-carbohydrazide]: over 500 µM.
